Experimental data from ChEMBL document CHEMBL4346691, “GABA allosteric modulators: An overview of recent developments in non-benzodiazepine modulators” (Eur J Med Chem, 2019).

Assays:
Xenopus laevis = assay: Anaesthetic activity in Xenopus laevis tadpoles assessed as dose causing loss of righting reflex measured every 10 mins up to 120 mins; format: functional, organism-based
[1] = target: T1, GABA-A receptor; alpha-1/beta-2/gamma-2 (Homo sapiens) (UniProt P14867+P47870+P18507); assay: Positive allosteric modulation of human GABA-A alpha1beta2gamma2S receptor expressed in Xenopus laevis oocytes assessed as increase in GABA-induced chloride channel current at 100 uM by two-electrode voltage clamp method relative to control; format: cell-based
[2] = target: T2, GABA-A receptor; alpha-5/beta-3/gamma-2 (Homo sapiens) (UniProt P18507+P28472+P31644); assay: Inverse agonist activity at recombinant human GABA-A alpha5beta3gamma2 receptor expressed in Xenopus laevis oocytes relative to control; format: cell-based
[3] = Binding affinity to recombinant human GABA-A alpha2beta3gamma2 receptor expressed in L(tk) cells; format: cell-based
[4] = target: GABA-A receptor; alpha-1/beta-3/gamma-2 (Homo sapiens) (UniProt P14867+P18507+P28472); assay: Positive allosteric modulation of human GABA-Aalpha1beta3gamma2 receptor expressed in mouse L(tk-) cells assessed as GABA-induced membrane potential at 10 uM incubated for 2.5 min by FLIPR assay relative to control; format: cell-based
Homo sapiens [5] = species on record: Homo sapiens; assay: Positive allosteric modulation of human GABA-A alpha4beta3delta receptor expressed in mouse L(tk-) cells assessed as GABA-induced membrane potential at 10 uM incubated for 2.5 min by FLIPR assay relative to control; format: cell-based
Homo sapiens [6] = species on record: Homo sapiens; assay: Positive allosteric modulation of human GABAA alpha4beta3gamma2 receptor expressed in mouse L(tk-) cells assessed as GABA-induced membrane potential at 10 uM incubated for 2.5 min by FLIPR assay relative to control; format: cell-based
[7] = target: T3, GABA-A receptor; alpha-1/beta-2/gamma-2 (Homo sapiens, UniProt P14867+P18507+P47870); assay: Positive allosteric modulation of human GABA-A alpha1beta2gamma2S receptor expressed in Xenopus laevis oocytes assessed as increase in GABA-induced chloride channel current by two-electrode voltage clamp method relative to control; format: cell-based
T3 sequence (P14867 whole entry): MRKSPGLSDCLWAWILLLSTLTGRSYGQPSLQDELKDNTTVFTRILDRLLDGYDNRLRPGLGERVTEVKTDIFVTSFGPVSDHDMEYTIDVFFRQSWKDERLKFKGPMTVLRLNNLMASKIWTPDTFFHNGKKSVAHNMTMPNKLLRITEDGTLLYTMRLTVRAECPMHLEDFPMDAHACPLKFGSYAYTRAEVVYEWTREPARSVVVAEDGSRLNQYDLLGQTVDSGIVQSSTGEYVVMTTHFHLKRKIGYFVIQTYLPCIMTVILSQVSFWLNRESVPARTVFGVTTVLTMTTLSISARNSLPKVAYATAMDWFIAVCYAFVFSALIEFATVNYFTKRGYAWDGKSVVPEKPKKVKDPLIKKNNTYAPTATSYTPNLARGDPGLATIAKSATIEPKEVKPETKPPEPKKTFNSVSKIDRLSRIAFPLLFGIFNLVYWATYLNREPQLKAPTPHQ
T3 sequence (P47870 whole entry): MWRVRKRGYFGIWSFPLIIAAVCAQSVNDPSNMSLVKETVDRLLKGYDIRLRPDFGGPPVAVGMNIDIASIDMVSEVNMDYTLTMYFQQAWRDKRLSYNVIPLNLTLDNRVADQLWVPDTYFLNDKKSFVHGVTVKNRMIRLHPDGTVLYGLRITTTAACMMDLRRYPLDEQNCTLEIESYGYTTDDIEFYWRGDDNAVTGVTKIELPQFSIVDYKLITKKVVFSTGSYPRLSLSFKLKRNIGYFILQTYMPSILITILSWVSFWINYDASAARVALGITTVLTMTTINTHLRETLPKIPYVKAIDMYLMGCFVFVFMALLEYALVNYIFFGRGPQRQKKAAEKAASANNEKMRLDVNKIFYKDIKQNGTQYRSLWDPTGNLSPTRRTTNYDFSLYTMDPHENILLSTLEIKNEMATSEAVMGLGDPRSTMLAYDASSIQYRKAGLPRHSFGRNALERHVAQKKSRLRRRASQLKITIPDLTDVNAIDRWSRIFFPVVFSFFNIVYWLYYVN
T3 sequence (P18507 whole entry): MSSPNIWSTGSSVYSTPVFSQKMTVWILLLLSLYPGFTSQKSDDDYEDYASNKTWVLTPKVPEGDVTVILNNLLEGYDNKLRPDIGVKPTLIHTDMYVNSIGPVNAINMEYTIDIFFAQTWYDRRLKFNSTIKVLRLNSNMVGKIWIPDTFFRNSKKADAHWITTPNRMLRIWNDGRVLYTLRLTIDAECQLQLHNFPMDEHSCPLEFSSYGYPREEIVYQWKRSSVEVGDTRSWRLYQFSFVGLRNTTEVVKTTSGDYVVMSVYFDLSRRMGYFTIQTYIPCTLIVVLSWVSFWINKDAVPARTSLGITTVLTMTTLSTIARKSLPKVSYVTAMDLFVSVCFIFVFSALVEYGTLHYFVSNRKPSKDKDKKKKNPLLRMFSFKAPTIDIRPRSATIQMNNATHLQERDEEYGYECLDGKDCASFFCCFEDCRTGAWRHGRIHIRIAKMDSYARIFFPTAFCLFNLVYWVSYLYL

[8] = target: T1, GABA-A receptor; alpha-1/beta-2/gamma-2 (Homo sapiens); assay: Positive allosteric modulation of human GABA-A alpha1beta2gamma2S receptor expressed in Xenopus laevis oocytes assessed as increase in GABA-induced chloride channel current by two-electrode voltage clamp method; format: cell-based
[9] = target: T1, GABA-A receptor; alpha-1/beta-2/gamma-2 (Homo sapiens); assay: Positive allosteric modulation of recombinant human GABAA alpha1beta2gamma2s receptor expressed in Xenopus laevis oocytes assessed as GABA-stimulated current amplitude at 300 uM measured for 2 min by electrophysiological method relative to control; format: cell-based
[10] = Displacement of [3H]-Flumazenil from GABAA/BZD receptor in rat cortical membranes incubated for 40 mins by radioligand binding assay; format: cell membranes
Homo sapiens [11] = species on record: Homo sapiens; assay: Partial agonist activity at human GABA-A alpha4beta3delta receptor expressed in Xenopus laevis oocytes assessed as maximal GABA response by electrophysiology method relative to GABA; format: cell-based
Homo sapiens [12] = species on record: Homo sapiens; assay: Selectivity ratio, ratio of EC50 for human GABA-A alpha4beta1delta receptor expressed in Xenopus laevis oocytes to EC50 for human GABA-A alpha4beta2delta receptor expressed in Xenopus laevis oocytes; format: cell-based
[13] = Binding affinity to human GABA-A alpha4beta2delta receptor expressed in Xenopus laevis oocytes; format: cell-based
Homo sapiens [14] = species on record: Homo sapiens; assay: Agonist activity at human GABA-A alpha4beta2delta receptor expressed in Xenopus laevis oocytes assessed as maximal GABA response by electrophysiology method relative to GABA; format: cell-based
[15] = Binding affinity to human GABA-A alpha4beta3delta receptor expressed in Xenopus laevis oocytes; format: cell-based
Homo sapiens [16] = species on record: Homo sapiens; assay: Selectivity ratio, ratio of EC50 for human GABA-A alpha4beta1delta receptor expressed in Xenopus laevis oocytes to EC50 for human GABA-A alpha4beta3delta receptor expressed in Xenopus laevis oocytes; format: cell-based
[17] = target: Gamma-aminobutyric acid receptor subunit alpha-4/beta-1/delta (Homo sapiens) (UniProt P48169+O14764+P18505); assay: Partial agonist activity at human GABA-A alpha4beta1delta receptor expressed in Xenopus laevis oocytes assessed as maximal GABA response by electrophysiology method relative to GABA; format: cell-based
[18] = Inhibition of BZD receptor (unknown origin); parameters: species or system Homo sapiens
Homo sapiens [19] = species on record: Homo sapiens; assay: Positive allosteric modulation of human GABA-A alpha4beta3delta receptor expressed in mouse L(tk-) cells assessed as GABA-induced membrane potential at 1 uM incubated for 2.5 min by FLIPR assay relative to control; format: cell-based
[20] = target: T3, GABA-A receptor; alpha-1/beta-2/gamma-2; assay: Positive allosteric modulation of human recombinant GABA-A alpha1beta2gamma2L receptor expressed in Xenopus laevis oocytes by two-electrode voltage clamp method; format: cell-based
[21] = target: T1, GABA-A receptor; alpha-1/beta-2/gamma-2 (Homo sapiens); assay: Positive allosteric modulation of human recombinant GABA-A alpha1beta2gamma2L receptor expressed in Xenopus laevis oocytes assessed as maximal current response by two-electrode voltage clamp method relative to control; format: cell-based
[22] = target: GABA-A receptor; anion channel; assay: Displacement of [35S]TBPS from Sprague-Dawley rat brain cortical membrane GABAA receptor incubated for 90 mins by scintillation counting method
[23] = Displacement of [3H]-Flumazenil from GABAA/BZD receptor in Sprague-Dawley rat cerebral cortex incubated for 40 mins by liquid scintillation counting method
[24] = Displacement of [3H]-Flumazenil from GABAA/BZD receptor in rat cortical membranes; format: cell membranes
[25] = Oral bioavailability in rat at 3 mg/kg; format: ADME, organism-based; conditions: in vivo
[26] = target: T4, GABA-A receptor; alpha-5/beta-3/gamma-2 (Homo sapiens, UniProt P18507+P28472+P31644); assay: Inverse agonist activity at recombinant human GABA-A alpha5beta3gamma2 receptor expressed in mouse L(tk-) cells by radioligand binding assay; format: cell-based
T4 sequence (P18507 whole entry): T3 sequence (P18507 whole entry)
T4 sequence (P28472 whole entry): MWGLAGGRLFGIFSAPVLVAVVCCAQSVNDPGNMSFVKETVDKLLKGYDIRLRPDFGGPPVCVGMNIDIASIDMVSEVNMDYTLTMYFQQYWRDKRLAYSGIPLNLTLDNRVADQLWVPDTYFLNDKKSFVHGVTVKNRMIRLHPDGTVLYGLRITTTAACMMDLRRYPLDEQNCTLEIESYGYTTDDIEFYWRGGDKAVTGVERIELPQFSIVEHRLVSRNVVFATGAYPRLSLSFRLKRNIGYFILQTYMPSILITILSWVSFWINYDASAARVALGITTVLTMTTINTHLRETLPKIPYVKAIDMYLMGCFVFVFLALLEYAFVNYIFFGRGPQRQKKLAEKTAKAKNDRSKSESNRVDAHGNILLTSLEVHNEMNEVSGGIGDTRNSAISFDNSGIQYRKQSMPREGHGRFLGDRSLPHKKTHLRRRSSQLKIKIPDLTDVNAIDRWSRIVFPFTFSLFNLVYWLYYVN
T4 sequence (P31644 whole entry): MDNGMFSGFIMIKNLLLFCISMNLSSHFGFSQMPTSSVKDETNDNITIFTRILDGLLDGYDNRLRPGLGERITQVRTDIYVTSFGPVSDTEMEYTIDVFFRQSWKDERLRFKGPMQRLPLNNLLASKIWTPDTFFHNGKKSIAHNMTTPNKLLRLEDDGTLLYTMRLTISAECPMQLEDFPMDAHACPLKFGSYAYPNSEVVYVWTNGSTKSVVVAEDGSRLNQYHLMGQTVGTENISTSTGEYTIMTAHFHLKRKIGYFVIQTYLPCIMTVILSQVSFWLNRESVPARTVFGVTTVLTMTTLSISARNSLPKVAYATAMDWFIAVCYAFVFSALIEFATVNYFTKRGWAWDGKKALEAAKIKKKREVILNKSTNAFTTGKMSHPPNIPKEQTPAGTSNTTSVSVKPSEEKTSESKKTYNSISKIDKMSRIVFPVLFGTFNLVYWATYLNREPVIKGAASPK

[27] = target: T2, GABA-A receptor; alpha-5/beta-3/gamma-2 (Homo sapiens); assay: Inverse agonist activity at recombinant human GABA-A alpha5beta3gamma2 receptor expressed in mouse L(tk-) cells by whole-cell patch-Clamp method; format: cell-based

CC(C)C1CCCC(C(C)C)C1O (stereo not drawn)
EC50 (Xenopus laevis): 14000 nM

CC(C)=CCOc1c2ccoc2cc2oc(=O)ccc12
Activity [1]: > 20%

Cc1cc(-c2nnc3c4ccccc4c(OCc4cn(C)nn4)nn23)no1
Efficacy [2]: -29%

c1ccc(COc2nn3c(-c4ccccc4)nnc3c3ccccc23)cc1
Ki [3]: 16 nM

O=C(Nc1c(-c2cccs2)nc2c(Br)cc(Br)cn12)c1ccc(Cl)cc1
Activity [4]: 407% | Activity (Homo sapiens [5]): 975% | Activity (Homo sapiens [6]): 306%

CC1(C)O[C@H]1COc1c2ccoc2cc2oc(=O)ccc12 [OXYPEUCEDANIN]
EC50 [7]: 25000 nM | Activity [8]: 547% | Activity [1]: > 20%

COc1c2ccoc2c(OCC=C(C)C)c2oc(=O)ccc12
Activity [1]: > 20%

CC1=CCC(C(C)(C)O)CC1 (stereo not drawn)
Activity [9]: 91.2%

CCCC(=O)Nc1nsc2[nH]c3ccc(C)cc3c(=O)c12
Ki [10]: 2.8 nM

c1ccc(-c2nnc3c4ccccc4c(OCc4ccccn4)nn23)cc1
Ki [3]: 1.7 nM

CC(C)[C@H]1CC[C@@H](C)C[C@@H]1O
Activity [9]: 226%

COc1ccccc1-c1oc2ccc(C)cc2c(=O)c1O
Imax (Homo sapiens [11]): 105% | Ratio EC50 (Homo sapiens [12]): 10 | EC50 [13]: 1400 nM | Imax (Homo sapiens [14]): 105% | EC50 [15]: 2500 nM | Ratio EC50 (Homo sapiens [16]): 10 | Imax [17]: 61%

O=c1c2c[nH]c3c(c-2nn1-c1ccc(Cl)cc1)CCCC3
IC50 [18]: 1 nM

COc1ccc2ccc(=O)oc2c1CC=C(C)C [OSTHOLE]
EC50 [7]: 14000 nM | Activity [8]: 116% | Activity [1]: > 20%

OC1CCCCC1
Activity [9]: 30.1%

CCCCCc1nsc2[nH]c3ccc(C)cc3c(=O)c12
Ki [10]: 13 nM

O=C(Nc1c(-c2cccs2)nc2ccccn12)c1ccc(Cl)cc1
Activity (Homo sapiens [19]): 126%

C=C(C)[C@H]1CC[C@H](C)C[C@@H]1O
Activity [9]: 280%

CCCc1cc2c(=O)c(-c3ccc4c(c3)OCO4)c(CC)oc2cc1OC(=O)CC
EC50 [20]: 9300 nM | Emax [21]: 1080%

CCNC1=Nc2ccc(Cl)cc2C(C)(c2ccccc2)O1 (stereo not drawn) [ETIFOXINE]
IC50 [22]: 6700 nM

CC1CCCC(C)C1O (stereo not drawn)
EC50 (Xenopus laevis): 13100 nM

O=C1C[C@@H](c2ccc(O)cc2)Oc2cc(O)c(-c3c(O)cc(O)c4c(=O)cc(-c5ccc(O)cc5)oc34)c(O)c21
Ki [23]: 45 nM

CC1(C)O[C@@H]1COc1c2occc2cc2ccc(=O)oc12
Activity [1]: > 20%

CCOC(=O)c1cnc2ccc(C(F)(F)F)cc2c1O
Ki [24]: 122 nM

O=C1C[C@@H](c2ccc(O)cc2)Oc2c1c(O)cc(O)c2-c1c(O)cc(O)c2c(=O)cc(-c3ccc(O)cc3)oc12
Ki [23]: 280 nM

CC(C)=CCOc1c2occc2cc2ccc(=O)oc12
Activity [1]: > 20%

c1ccc(-c2nnc3c4c(c(OCc5ccccn5)nn23)C2CCC4CC2)cc1
bioavailability [25]: 33% | Ki [3]: 26 nM

Cc1cc(-c2nncc3c(C(C)(C)C)c(OCc4ncnn4C)nn23)no1
Ki [26]: 3 nM | Efficacy [27]: -55%
